From paper PMC8072719, “Synthesis and Antiproliferative Activity of Triazoles Based on 2-Azabicycloalkanes” (Materials, 2021)
Read-outs that look alike come from different tables or passages of the source.

Columns and labels:
[1] = system: Hs294T; experiment: Growth inhibition assay (SRB assay), melanoma cell line Hs294T; type: cell-based, human; conditions: Homo sapiens, Hs 294T, 72 h, mean ± SD
Procedure: (§1) Three human cancer cell lines were used to evaluate the antiproliferative activity of the obtained compounds: melanoma cell line Hs294T, pancreatic tumor cell line MIA PaCa-2, and lung tumor cell line NCI-H1581. The normal mouse fibroblasts cell line (BALB/3T3 clone A31) was selected as reference. All these lines were purchased from the ATCC (American Type Culture Collection, Rockville, MD, USA). NCI-H1581 cells were grown in RPMI 1640 with GlutaMax medium (Gibco, Thermo Fisher Scientific, Leicestershire, UK) with 5% fetal bovine serum (FBS; HyClone, GE Healthcare, Logan, UT, USA). Hs294T and BALB/3T3 cells were grown in Dulbecco’s Modified Eagle Medium (DMEM; Gibco, Thermo Fisher Scientific, Leicestershire, UK) supplemented with 2 mM L-glutamine and 10% FBS (HyClone, GE Healthcare, Logan, UT, USA). MIA PaCa-2 cells were grown in DMEM (Gibco, Thermo Fisher Scientific, Leicestershire, UK) supplemented with 2 mM L-glutamine, 2.5% Horse Serum (Gibco, Thermo Fisher Scientific, Leicestershire, UK), and 10% FBS (HyClone, GE Healthcare, Logan, UT, USA). All culture media were supplemented with antibiotics: 100 U/mL penicillin (Polfa Tarchomin SA, Warsaw, Poland) and 100 µg/mL streptomycin (Sigma-Aldrich Chemie GmbH, Steinheim, Germany); cells were grown at 37 °C in a humid atmosphere with 5% CO2.
(§2) Twenty-four hours prior to the addition of the tested compounds, 2000 cells per well of Balb/3T3, MIA PaCa-2, and Hs294T cell lines and 2500 cells of NCI-H1581 cell line were seeded in 384-well plates (Greiner Bio-One, Kremsmünster, Austria) in an appropriate medium. The studied compounds were added to the cells at 8 different concentrations in a series of dilutions from 100 to 0.00001 µg/mL for 72 h. Cisplatin was applied as a reference compound (Teva Pharmaceuticals, Warsaw, Poland). DMSO (Sigma-Aldrich Chemie GmbH, Steinheim, Germany) was used as solvent control. The DMSO concentrations corresponded to the solvent concentrations in the tested compound solutions. Then, 30 µL per well of ice-cold 50% TCA (trichloroacetic acid, Avantor, Gliwice, Poland) was added to the cells. After one hour of incubation at room temperature (RT) cells were washed five times with water and stained with 0.4% SRB (sulforhodamine B, Sigma-Aldrich Chemie GmbH, Steinheim, Germany). Twenty-five microliters per well of 0.4% solution of SRB in 1% acetic acid (Avantor, Gliwice, Poland) was applied. After 0.5 h of incubation at RT, the unbound dye was washed out with 1% acetic acid. The bound dye in each well was dissolved in 70 µl of 10 mM TRIS (Tris base, Sigma-Aldrich, Chemie GmbH, Steinheim, Germany). A microplate reader (BioTek Synergy H4, Swindon, UK) with Gen5 software was used to read the absorbance at 540 nm. The results are presented as mean IC50 values (concentration of the compound that inhibits cell proliferation by 50%) ± standard deviation. Half-maximal inhibitory concentration (IC50) values were calculated using the Prolab-3 system based on Cheburator 0.4 [22]. Each experiment was performed in triplicate, and three independent repetitions were made for each experiment. Raw data and IC50 values were placed in the supplementary materials.

[2] = system: MIA PaCa-2; experiment: Growth inhibition assay (SRB assay), pancreatic tumor cell line MIA PaCa-2; type: cell-based, human; conditions: Homo sapiens, mean ± SD
Procedure: as §1, §2

[3] = system: NCI-H1581; experiment: Growth inhibition assay (SRB assay), lung tumor cell line NCI-H1581; type: cell-based, human; conditions: for IC50: 72 h, SRB, mean ± SD; for SI (Selectivity Index): SI = IC50 for normal cell line BALB/3T3 / IC50 for NCI-H1581
Procedure: as §1, §2

[4] = system: BALB/3T3 clone A31; experiment: Growth inhibition assay (SRB assay), normal fibroblasts BALB/3T3 clone A31; type: cell-based, mouse; conditions: mean ± SD
Procedure: as §1, §2

[5] = Solvability in DMSO (table footnote); type: physicochemical; parameters: key to solvability in dimethyl sulfoxide (DMSO): **: poor or no solvability in dimethyl sulfoxide (DMSO); key to solvability in DMSO: [b]: poor or no solvability in DMSO; conditions: for solvability in DMSO: supplement
[6] = supplement, read-out: IC50 Hs294T (raw data)
[7] = MIA PaCa-2, 72 h, read-out: IC50 MIA PaCa-2
[8] = MIA PaCa-2, supplement, 72 h, read-out: IC50 MIA PaCa-2 (non-rounded data)
[9] = MIA PaCa-2, supplement, 72 h, read-out: IC50 MIA PaCa-2 (raw data)
[10] = Homo sapiens, NCI-H1581, 72 h, read-out: IC50 NCI-H1581
[11] = Homo sapiens, NCI-H1581, 72 h, supplement, read-out: IC50 NCI-H1581 (raw data)
[12] = Mus musculus, BALB/3T3 clone A31, 72 h, normal cell line, read-out: IC50 BALB3T3
[13] = Mus musculus, BALB/3T3 clone A31, 72 h, supplement, read-out: IC50 BALB3T3 (non-rounded data)
[14] = Mus musculus, BALB/3T3 clone A31, 72 h, supplement, read-out: IC50 BALB3T3 (raw data)
[15] = 72 h, normal cell line, read-out: IC50 BALB3T3

Row | SMILES | IC50 ([1]; read-out: IC50 Hs294T) [µM] | IC50 ([1]; supplement, read-out: IC50 Hs294T (non-rounded data)) [µM] | IC50 [1, 6] | IC50 [2, 7] [µM] | IC50 [2, 8] [µM] | IC50 [2, 9] | IC50 [3, 10] [µM] | IC50 [3, 11] [µg/mL] | solvability in dimethyl sulfoxide (DMSO) [5] | solvability in DMSO [5] | IC50 ([3]; read-out: IC50 NCI-H1581) [µM] | IC50 [4, 12] [µM] | IC50 [4, 13] [µM] | IC50 [4, 14] | SI (Selectivity Index) [3] | IC50 [4, 15] [µM]
1 | C[C@@H](c1ccccc1)N1C[C@@H](n2cc(-c3ccc(-c4cn([C@@H]5CN([C@@H](C)c6ccccc6)[C@H]6CC[C@@H]5C6)nn4)cc3)nn2)[C@@H]2CC[C@H]1C2 [Compound 14, 1,4-Bis-(1-((1S,4S,5R)-2-((S)-1-phenylethyl)-2-azabicyclo[3.2.1]octan-4-yl)-1H-1,2,3-triazol-4-yl) benzene] | 77.3 ± 9.5 | – | 49.4 ± 6.07 µg/mL | > 100 | > 100 | > 100 µM | 20.9 ± 15.2 | 13.4 ± 9.71 | 14 ** | [b] | – | > 100 | > 100 | > 100 µM | – | –
2 | C[C@@H](c1ccccc1)N1C[C@H](n2cc(CCCc3cn([C@H]4CN([C@@H](C)c5ccccc5)[C@H]5CC[C@@H]4C5)nn3)nn2)[C@@H]2CC[C@H]1C2 [Compound 11, 1,3-Bis-(1-((1S,4R,5R)-2-((S)-1-phenylethyl)-2-azabicyclo[3.2.1]octan-4-yl)-1H-1,2,3-triazol-4-yl) propane] | 9.71 ± 3.08 | – | 5.87 ± 1.86 µg/mL | 37.6 ± 5.51 | – | 22.7 ± 3.33 µg/mL | 4.4 ± 0.61 | 2.66 ± 0.37 | 11 ** | [b] | – | 26.7 | – | 16.2 ± 2.88 µg/mL | 6 | 26.7 ± 4.76
3 | C[C@@H](c1ccccc1)N1C[C@H](n2cc(-c3ccc(-c4cn([C@H]5CN([C@@H](C)c6ccccc6)[C@H]6CC[C@@H]5C6)nn4)cc3)nn2)[C@@H]2CC[C@H]1C2 [Compound 15, 1,4-Bis-(1-((1S,4R,5R)-2-((S)-1-phenylethyl)-2-azabicyclo[3.2.1]octan-4-yl)-1H-1,2,3-triazol-4-yl) benzene] | 58.8 ± 4.07 | – | 37.6 ± 2.6 µg/mL | 111 ± 9.55 | – | 71.2 ± 6.1 µg/mL | 6.87 ± 1.46 | 4.39 ± 0.93 | 15 ** | [b] | – | 59.5 ± 11.7 | – | 38 ± 7.48 µg/mL | 9 | –
4 | C[C@@H](c1ccccc1)N1C[C@H](n2cc(COCc3cn([C@H]4CN([C@@H](C)c5ccccc5)[C@H]5CC[C@@H]4C5)nn3)nn2)[C@@H]2CC[C@H]1C2 [Compound 13, (1S,1′S,4R,4′R,5R,5′R)-4,4′-(4,4′-(oxybis(methylene))bis(1H-1,2,3-triazole-4,1-diyl))bis(2-((S)-1-phenylethyl)-2-azabicyclo[3.2.1]octane)] | 13.7 ± 2.31 | – | 8.28 ± 1.4 µg/mL | 44.9 ± 3.69 | – | 27.2 ± 2.24 µg/mL | 4.88 ± 0.41 | 2.96 ± 0.25 | – | – | – | 46.1 | – | 27.9 ± 6.85 µg/mL | 9 | 46.1 ± 11.3

Now from value to molecule, other results behind:

Row | IC50 ([1]; read-out: IC50 Hs294T) [µM] | IC50 ([1]; supplement, read-out: IC50 Hs294T (non-rounded data)) [µM] | IC50 [1, 6] | IC50 [2, 7] [µM] | IC50 [2, 8] [µM] | IC50 [2, 9] | IC50 [3, 10] [µM] | IC50 [3, 11] [µg/mL] | solvability in dimethyl sulfoxide (DMSO) [5] | solvability in DMSO [5] | IC50 ([3]; read-out: IC50 NCI-H1581) [µM] | SMILES | IC50 [4, 12] [µM] | IC50 [4, 13] [µM] | IC50 [4, 14] | SI (Selectivity Index) [3] | IC50 [4, 15] [µM]
5 | > 100 | > 100 | > 100 µM | > 100 | > 100 | > 100 µM | 53.9 ± 5.07 | 34.5 ± 3.24 | 16 ** | [b] | – | C[C@@H](c1ccccc1)N1C[C@@H](n2cc(-c3cccc(-c4cn([C@@H]5CN([C@@H](C)c6ccccc6)[C@H]6CC[C@@H]5C6)nn4)c3)nn2)[C@@H]2CC[C@H]1C2 [Compound 16, 1,3-Bis-(1-((1S,4S,5R)-2-((S)-1-phenylethyl)-2-azabicyclo[3.2.1]octan-4-yl)-1H-1,2,3-triazol-4-yl) benzene] | > 100 | > 100 | > 100 µM | – | –
6 | 92.6 ± 22 | – | 41.8 ± 9.92 µg/mL | 90.28 ± 0.69 | – | 40.77 ± 0.31 µg/mL | 77.6 | 35 ± 3.92 | 21 ** | [b] | 77.6 ± 8.68 | CC(c1ccccc1)N1C2CCC(C2)C1c1cn(CC2CCCN2C(=O)OC(C)(C)C)nn1 (stereo not drawn) [Compound 21] | > 100 | – | 48.8 ± 10.1 µg/mL | – | –
7 | 20.8 ± 5.02 | – | 18.8 ± 4.52 µg/mL | 25.7 ± 0.26 | – | 23.11 ± 0.23 µg/mL | 2.4 | 2.2 ± 0.06 | – | – | 2.44 ± 0.07 | C[C@@H](c1ccccc1)N1C[C@@H](n2cc(CN(Cc3cn([C@@H]4CN([C@@H](C)c5ccccc5)[C@H]5CC[C@@H]4C5)nn3)Cc3cn([C@@H]4CN([C@@H](C)c5ccccc5)[C@H]5CC[C@@H]4C5)nn3)nn2)[C@@H]2CC[C@H]1C2 [Compound 18, N,N,N-tri((1-((1S,4S,5R)-2-((S)-1-phenylethyl)-2-azabicyclo[3.2.1]octan-4-yl)-1H-1,2,3-triazol-4-yl)methyl) amine] | 23.1 ± 2.72 | – | 20.8 ± 2.45 µg/mL | – | –
